Converted amounts (≈) assume the structure as drawn. “And” between values parts separate entries of the source, which are not always exact repeats. Identical values can stand only once. Like-named read-outs stand apart in the source and are kept apart here.

For assay [1], the system named is S. aureus ATCC 700699 (Sa 99). Briefly: MIC, broth microdilution, Sa 99. Type of assay: cell-based. The settings on record: for MIC: Staphylococcus aureus, read-out: Minimum inhibitory concentration (MIC) Sa 99; for Minimum inhibitory concentration (MIC) Sa 99: Table 1, HT series. As to the method: (§1) The broth microdilution method was utilized to determine MIC values of novel thiazole derivatives against different clinically important Gram-positive bacteria according to the guidelines outlined by the Clinical and Laboratory Standards Institute (CLSI) as reported in our recent papers.^1-5 The starting concentration of compounds for MIC determination was 64 μg/mL serially diluted down the wells and the MIC values were recorded in duplicates in three independent experiments on different days.
A general note: Dilution methods test growth across graded concentrations, often in twofold steps.

Assay [2] relates to S. aureus ATCC 25923 (Sa 23). The experiment in a line: MIC, broth microdilution, Sa 23. Format: cell-based. The settings on record: for MIC: Staphylococcus aureus, read-out: Minimum inhibitory concentration (MIC) Sa 23; for Minimum inhibitory concentration (MIC) Sa 23: Table 1, HT series. Here is the method:
as §1

Assay [3] concerns S. aureus ATCC 33592 (Sa 92). Briefly: MIC, broth microdilution, Sa 92. The settings on record: Staphylococcus aureus, ATCC33592, read-out: Minimum inhibitory concentration (MIC) Sa 92. Format: cell-based. Here is the method: as §1
For assay [4], the system named is S. aureus subsp. aureus Rosenbach ATCC 25904 (SA Newman). The experiment in a line: MIC, broth microdilution, SA Newman. Type of assay: cell-based. The settings on record: Staphylococcus aureus, read-out: Minimum inhibitory concentration (MIC) Sa Newman. As to the method:
as §1

The test system of assay [5] is E. faecalis ATCC 29212 (Efs 12). The experiment in a line: MIC, broth microdilution, Efs 12. Format: cell-based. The settings on record: for MIC: Enterococcus faecalis, read-out: Minimum inhibitory concentration (MIC) Efs 12; for Minimum inhibitory concentration (MIC) Efs 12: Table 1, HT series. As to the method: as §1
Assay [6] concerns S. aureus ATCC 33591 (Sa 91). The experiment in a line: MIC, broth microdilution, Sa 91. The settings on record: Staphylococcus aureus, ATCC33591, read-out: Minimum inhibitory concentration (MIC) Sa 91. Format: cell-based. As to the method:
as §1

Assay [7] concerns Sa UAMS-1 MRSA ATCC 49230 (Sa UAMS). The experiment in a line: MIC, broth microdilution, Sa UAMS. Type of assay: cell-based, S. aureus. The settings on record: Staphylococcus aureus. Here is the method:
as §1

Assay [8] concerns S. aureus LAC MRSA (Sa LAC). Briefly: MIC, broth microdilution, Sa LAC. Type of assay: cell-based. The settings on record: Staphylococcus aureus, Table 1, HT series, read-out: Minimum inhibitory concentration (MIC) Sa LAC. As to the method: as §1
Assay [9] concerns S. aureus ATCC BAA-2312 (Sa 12). Briefly: MIC, broth microdilution, Sa 12. Type of assay: cell-based. The settings on record: Staphylococcus aureus, ATCCBAA2312, read-out: Minimum inhibitory concentration (MIC) Sa 12. Here is the method: as §1
Assay [10] deals with E. faecium ATCC 700221 (Efm 21). The experiment in a line: MIC, broth microdilution, Efm 21. Type of assay: cell-based. The settings on record: Enterococcus faecium, ATCC700221, Table 2, HTM series; read-out: Minimum inhibitory concentration (MIC) Efm 21. Here is the method: as §1
Assay [11] deals with S. epidermidis ATCC 700296 (Se). The experiment in a line: MIC, broth microdilution, Se. Format: cell-based. The settings on record: Staphylococcus epidermidis, ATCC700296; Table 2, HTM series; read-out: Minimum inhibitory concentration (MIC) Se. Here is the method: as §1
Assay [12] deals with E. faecalis ATCC 51299 (Efs 99). Briefly: MIC, broth microdilution, Efs 99. Format: cell-based. The settings on record: Enterococcus faecalis, ATCC51299; Table 2, HTM series; read-out: Minimum inhibitory concentration (MIC) Efs 99. As to the method:
as §1

Assay [13] has as its system S. aureus subsp. aureus Rosenbach BAA-1717 (Sa USA 300). Briefly: MIC, broth microdilution, Sa USA 300. Type of assay: cell-based. The settings on record: Staphylococcus aureus; Table 2, HTM series; read-out: Minimum inhibitory concentration (MIC) Sa USA 300. As to the method:
as §1

[14] abbreviates: ATCC700699, Table 1, HT series, replicates from different days separated by comma.
The mark [15] stands for this setting: replicates from different days separated by comma.
The mark [16] stands for this setting: ATCC25923, Table 1, HT series, replicates from different days separated by comma.
Where [17] appears, read: ATCC29212, Table 1, HT series, replicates from different days separated by comma.
Setting [18] is: Table 1, HT series, read-out: Minimum inhibitory concentration (MIC) Sa UAMS.
[19] abbreviates: ATCC700699, Table 2, HTM series.
Setting [20] is: Table 2, HTM series, read-out: Minimum inhibitory concentration (MIC) Sa UAMS-1.

As for `Oc1ccc(-c2nc(-c3ccccc3)cs2)cc1O` [Compound 2, 4-(4-phenylthiazol-2-yl)benzene-1,2-diol], the MIC was 32 µg/mL (≈ 119 µM) in [1] (setting [14]); 8 µg/mL (≈ 29.7 µM) in [2] (setting [16]); 16 µg/mL (≈ 59.4 µM) in assay [3] (Table 1, HT series); 32 µg/mL (≈ 119 µM) in assay [4] (Table 1, HT series); over 32 µg/mL in assay [5] (setting [17]); 16 µg/mL (≈ 59.4 µM) in assay [6] (Table 1, HT series). Besides, the MIC worked out at 32 µg/mL (≈ 119 µM) in [7] (setting [18]); 32 µg/mL (≈ 119 µM) in assay [8]; 32 µg/mL (≈ 119 µM) in assay [9] (Table 1, HT series). The “Minimum inhibitory concentration (MIC) Sa 99” value in assay [1] (setting [15]) is 16 µg/mL (≈ 59.4 µM). Moreover, in [2] (setting [15]), the “Minimum inhibitory concentration (MIC) Sa 23” value worked out at 16 µg/mL (≈ 59.4 µM). Also, the “Minimum inhibitory concentration (MIC) Efs 12” value in assay [5] (setting [15]) is >32, >32, >32 μg/mL.

As to `Oc1ccc(-c2nc(-c3cccc(Cl)c3)cs2)cc1O` [Compound 3, 4-(4-(3-chlorophenyl)thiazol-2-yl)benzene-1,2-diol], the MIC in assay [1] (setting [14]) turned out to be 4 µg/mL (≈ 13.2 µM); in assay [2] (setting [16]) it was 2 µg/mL (≈ 6.58 µM); in assay [3] (Table 1, HT series) it was 8 µg/mL (≈ 26.3 µM); in assay [4] (Table 1, HT series), 4 µg/mL (≈ 13.2 µM); in [5] (setting [17]), 16 µg/mL (≈ 52.7 µM); in [6] (Table 1, HT series) it was 4 µg/mL (≈ 13.2 µM). The MIC in assay [7] (setting [18]) amounted to 8 µg/mL (≈ 26.3 µM); in assay [8], 8 µg/mL (≈ 26.3 µM); in [9] (Table 1, HT series), 8 µg/mL (≈ 26.3 µM). Moreover, the “Minimum inhibitory concentration (MIC) Sa 99” value in assay [1] (setting [15]) is 4, 4, 4 μg/mL. In addition, the “Minimum inhibitory concentration (MIC) Sa 23” value in assay [2] (setting [15]) is reported as 2, 2, 2 μg/mL. In addition, the “Minimum inhibitory concentration (MIC) Efs 12” value in assay [5] (setting [15]) was 8 µg/mL and 16 µg/mL.

For the molecule `Oc1ccc(-c2nc(-c3ccc(F)cc3)cs2)cc1O` [Compound 4, 4-(4-(4-fluorophenyl)thiazol-2-yl)benzene-1,2-diol], the “Minimum inhibitory concentration (MIC) Sa 99” value in [1] (setting [15]) is 16 μg/mL (2×) and 4 μg/mL. Also, the MIC in [2] (setting [16]) was 4 µg/mL (≈ 13.9 µM); in [3] (Table 1, HT series) it was 16 µg/mL (≈ 55.7 µM); in [4] (Table 1, HT series) it was 8 µg/mL (≈ 27.8 µM); in [5] (setting [17]) it was 32 µg/mL (≈ 111 µM); in assay [6] (Table 1, HT series) it was 8 µg/mL (≈ 27.8 µM); in assay [7] (setting [18]), 16 µg/mL (≈ 55.7 µM). For the same molecule, the MIC in assay [8] was determined as 16 µg/mL (≈ 55.7 µM); in assay [9] (Table 1, HT series), 16 µg/mL (≈ 55.7 µM). The “Minimum inhibitory concentration (MIC) Sa 23” value in assay [2] (setting [15]) worked out at 8 µg/mL (≈ 27.8 µM). Also, the “Minimum inhibitory concentration (MIC) Efs 12” value in [5] (setting [15]) is 32, 32, 32 μg/mL.

Turning to `Oc1ccc(-c2csc(-c3cc(Cl)cc(Cl)c3)n2)cc1` [Compound 43, 4-(2-(3,5-dichlorophenyl)thiazol-4-yl)phenol], the MIC in [10] worked out at 2 µg/mL (≈ 6.21 µM); in assay [11] it was 1 µg/mL (≈ 3.1 µM); in [1] (setting [19]) it was 1 µg/mL (≈ 3.1 µM); in assay [2] (ATCC25923, Table 2, HTM series), 1 µg/mL (≈ 3.1 µM); in [3] (Table 2, HTM series) it was 1 µg/mL (≈ 3.1 µM); in [12] it was 2 µg/mL (≈ 6.21 µM). Moreover, the MIC in assay [4] (Table 2, HTM series) came out at 1 µg/mL (≈ 3.1 µM); in assay [5] (ATCC29212, Table 2, HTM series), 2 µg/mL (≈ 6.21 µM); in assay [6] (Table 2, HTM series), 1 µg/mL (≈ 3.1 µM); in assay [7] (setting [20]), 1 µg/mL (≈ 3.1 µM); in assay [9] (Table 2, HTM series) it was 1 µg/mL (≈ 3.1 µM); in assay [13] it was 1 µg/mL (≈ 3.1 µM).

As to `Oc1ccc(-c2csc(Nc3ccc(Cl)c(Cl)c3)n2)cc1` [Compound 75, 4-(2-((3,4-dichlorophenyl)amino)thiazol-4-yl)phenol], the MIC in assay [10] came out at 4 µg/mL (≈ 11.9 µM); in assay [11], 2 µg/mL (≈ 5.93 µM); in [1] (setting [19]), 2 µg/mL (≈ 5.93 µM); in assay [2] (ATCC25923, Table 2, HTM series), 2 µg/mL (≈ 5.93 µM); in assay [3] (Table 2, HTM series) it was 2 µg/mL (≈ 5.93 µM); in [12], 4 µg/mL (≈ 11.9 µM). In addition, the MIC came out at 4 µg/mL (≈ 11.9 µM) in [4] (Table 2, HTM series); 4 µg/mL (≈ 11.9 µM) in assay [5] (ATCC29212, Table 2, HTM series); 2 µg/mL (≈ 5.93 µM) in assay [6] (Table 2, HTM series); 2 µg/mL (≈ 5.93 µM) in [7] (setting [20]); 2 µg/mL (≈ 5.93 µM) in assay [9] (Table 2, HTM series); 2 µg/mL (≈ 5.93 µM) in assay [13].

Values taken from patent publication US20250270199A1, “THIAZOLE DERIVATIVES AND METHODS OF USING THE SAME” (Arkansas State University - Jonesboro, priority 2022, published 2025).
